According to patent publication US10941136B2, “Quinazoline derivative or its salt and pharmaceutical composition comprising the same” (YUHAN CORPORATION, priority 2016, dated 2021):

What was measured:
Type in all cases: biochemical
PI3Kδ (p110δ/p85α)(h) = target: T1, PI3Kδ (p110δ/p85α)(h) (Homo sapiens, UniProt O00329); experiment: PI3K-HTRF in vitro enzyme assay, PI3Kδ; conditions: enzyme 0.1 μg/ml
T1 construct: purchased Upstate (Millipore Co, Billerica, Mass., USA) #14˜604
Procedure: (§1) The compounds of the present invention were tested for the activity of phosphatidylinositol 3-kinase delta (PI3K) by using a PI3K enzyme-homogeneous time resolved fluorescence (PI3K-HTRF) kit, which is available under Upstate™ kit (Millipore Co, Billerica, Mass., USA). This kit system measures indirectly the amount of PIP3 produced via PI3K by detecting competitive inhibition of fluorescence complex formation.
(§2) There were used three kinds of buffer solutions, i.e., reaction buffer, stop solution, and detection solution. The reaction buffer was prepared by diluting Reaction Buffer (provided in Update™ kit) with distilled water 4 times and adding DTT to a concentration of 5 mM. The stop solution was prepared by combining STOP A and B Solutions (provided in Update™ kit) in a ratio of 3:1. The detection solution was prepared by combining Detection Solution A, B and C (provided in Update™ kit) in a ratio of 1:1:18. A substrate solution and an ATP solution were prepared by diluting the 1 mM PIP2 (phosphatidyl inositol 4,5 bi-phosphate) stock solution (provided in Update™ kit) and 10 mM ATP (Sigma-aldrich Co., St. Louis, Mo., USA) stock solution with the reaction buffer to concentrations of 20 μM and 40 μM, respectively. An enzyme solution was prepared by diluting PI3Kδ (#14˜604; Upstate™ kit) with the substrate solution to the concentration of 0.2 μg/ml (final reaction concentration: 0.1 μg/ml).
(§3) The test groups were prepared by dissolving each compound in 100% DMSO at 40× the final concentration and then diluting 10-fold with the reaction buffer. 5 μl of each diluted test group solution was transferred to a 384 well low flange white flat bottom microplate (#3572, Corning Life Sciences, Lowell, Mass., USA). We performed centrifuge (1 minute, 1000 rpm) and shaking for 2 minutes after every solution-adding step in this experiment. Next, 10 μl of the enzyme solution was added to each well. A mixed solution of the substrate solution (10 μl) plus 5 μl of the 100% DMSO diluted solution without test compound (i.e., 10% DMSO solution) was used as a negative control. And also, a mixed solution of enzyme solution (10 μl) plus 5 μl of the 100% DMSO diluted solution without test compound (i.e., 10% DMSO solution) was used as a positive control. This plate was pre-incubated for 10 minutes in a 25° C. incubator. After the pre-incubation, the phosphorylation reaction was induced by adding 5 μl of the ATP solution and the plate was incubated for 30 minutes in a 25° C. incubator. This enzyme reaction was stopped by 5 μl of the stop solution and then 5 μl of the detection solution was added thereto. To obtain enough fluorescence responses, the plate was incubated for 2 hours in a 25° C. incubator protected from light.
(§4) The time-resolved fluorescence resonance energy transfer (TR-FRET) rate was measured (emission wavelength: 665 nm, 620 nm, excitation wavelength: 313 nm) by using a Flexstation3 Micro plate reader (Molecular Devices, USA). TR-FRET Rate was calculated based on the Equation 1 and using these TR-FRET Rates, % inhibition rate of each compound was calculated based on the Equation 2. The IC50 values, i.e., the concentration of a test compound that inhibits 50% of PI3Kδ activity in vitro, are generated by Softmax program (Molecular Devices, USA). TR-FRET Rate=(Signal at 665 nm emission wavelength/Signal at 620 nm emission wavelength)×10000 <Equation 1> % Inhibition Rate=[(TR-FRET Rate of the test group−TR-FRET Rate of the positive control group)/(TR-FRET Rate of the negative control group−TR-FRET Rate of the positive control group)]×100 <Equation 2>

PI3Kα (p110α/p85α)(h) = target: T2, PI3Kα (p110α/p85α)(h) (Homo sapiens, UniProt P42336); experiment: PI3K-HTRF in vitro enzyme assay, PI3Kα; conditions: enzyme 0.1 μg/ml
T2 construct: purchased Upstate (Millipore Co) #14-602
Procedure: as §1, §2, §3, §4
(§5) The compounds of the present invention were assayed for the activities of PI3K subtypes, i.e., PI3Kα, PI3Kβ and PI3Kγ, using the same procedures as in Experimental Example 1. […]

PI3Kβ (p110β/p85α)(h) = target: T3, PI3Kβ (p110β/p85α)(h) (Homo sapiens, UniProt P42338); experiment: PI3K-HTRF in vitro enzyme assay, PI3Kβ; conditions: enzyme 0.4 μg/ml
T3 construct: purchased Upstate (Millipore Co) #14-603
Procedure: as §1, §2, §3, §4, §5

PI3Kγ (p120γ)(h) = target: T4, PI3Kγ (p120γ)(h) (Homo sapiens, UniProt P48736); experiment: PI3K-HTRF in vitro enzyme assay, PI3Kγ; conditions: enzyme 0.4 μg/ml
T4 construct: purchased Upstate (Millipore Co) #14-558
Procedure: as §1, §2, §3, §4, §5

T3 sequence (P42338 whole entry): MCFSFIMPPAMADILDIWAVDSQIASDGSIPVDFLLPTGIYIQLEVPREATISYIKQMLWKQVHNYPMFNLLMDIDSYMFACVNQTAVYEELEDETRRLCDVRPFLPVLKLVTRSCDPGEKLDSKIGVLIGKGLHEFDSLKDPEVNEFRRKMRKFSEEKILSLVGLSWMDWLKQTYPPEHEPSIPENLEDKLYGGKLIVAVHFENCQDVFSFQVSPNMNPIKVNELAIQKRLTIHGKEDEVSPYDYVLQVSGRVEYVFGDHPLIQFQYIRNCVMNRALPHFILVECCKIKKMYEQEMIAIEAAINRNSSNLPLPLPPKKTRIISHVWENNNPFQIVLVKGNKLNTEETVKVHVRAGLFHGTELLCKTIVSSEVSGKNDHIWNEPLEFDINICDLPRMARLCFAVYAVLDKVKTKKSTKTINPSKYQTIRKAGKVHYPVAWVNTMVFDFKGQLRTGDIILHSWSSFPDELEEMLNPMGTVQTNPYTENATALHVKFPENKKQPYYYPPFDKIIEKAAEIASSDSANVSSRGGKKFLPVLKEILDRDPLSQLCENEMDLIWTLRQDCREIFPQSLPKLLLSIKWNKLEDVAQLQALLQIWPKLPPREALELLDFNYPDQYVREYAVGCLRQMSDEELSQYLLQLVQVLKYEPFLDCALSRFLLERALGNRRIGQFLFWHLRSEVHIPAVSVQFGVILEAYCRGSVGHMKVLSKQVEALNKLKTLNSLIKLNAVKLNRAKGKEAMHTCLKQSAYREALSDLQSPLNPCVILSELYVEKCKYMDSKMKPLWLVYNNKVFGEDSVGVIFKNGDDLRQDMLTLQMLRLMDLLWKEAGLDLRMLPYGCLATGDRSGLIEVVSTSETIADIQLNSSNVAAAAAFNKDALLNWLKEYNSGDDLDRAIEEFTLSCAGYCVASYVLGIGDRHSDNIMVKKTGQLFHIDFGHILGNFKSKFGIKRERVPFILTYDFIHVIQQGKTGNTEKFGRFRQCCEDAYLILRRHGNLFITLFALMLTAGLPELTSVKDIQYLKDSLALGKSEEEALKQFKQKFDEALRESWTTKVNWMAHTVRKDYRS
T3 sequence (P27986 whole entry partner): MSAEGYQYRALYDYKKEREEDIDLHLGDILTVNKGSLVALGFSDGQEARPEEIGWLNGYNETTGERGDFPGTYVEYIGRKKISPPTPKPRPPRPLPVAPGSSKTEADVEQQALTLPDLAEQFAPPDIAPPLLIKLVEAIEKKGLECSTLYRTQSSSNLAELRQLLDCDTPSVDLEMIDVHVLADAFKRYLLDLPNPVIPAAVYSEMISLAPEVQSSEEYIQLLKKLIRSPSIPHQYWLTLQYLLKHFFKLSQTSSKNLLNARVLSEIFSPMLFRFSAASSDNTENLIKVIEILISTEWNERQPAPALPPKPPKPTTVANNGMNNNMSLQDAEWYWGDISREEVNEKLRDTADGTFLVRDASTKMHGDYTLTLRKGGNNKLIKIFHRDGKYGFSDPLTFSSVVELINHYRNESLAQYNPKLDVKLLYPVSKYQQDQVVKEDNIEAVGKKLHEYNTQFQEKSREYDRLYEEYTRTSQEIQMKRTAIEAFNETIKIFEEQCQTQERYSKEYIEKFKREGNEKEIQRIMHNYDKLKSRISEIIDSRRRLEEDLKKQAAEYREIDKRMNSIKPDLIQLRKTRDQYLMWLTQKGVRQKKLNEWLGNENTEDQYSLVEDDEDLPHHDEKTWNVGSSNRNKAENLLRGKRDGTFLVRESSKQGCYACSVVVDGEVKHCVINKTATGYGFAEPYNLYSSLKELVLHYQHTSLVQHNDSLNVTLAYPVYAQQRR
T1 sequence (O00329 whole entry): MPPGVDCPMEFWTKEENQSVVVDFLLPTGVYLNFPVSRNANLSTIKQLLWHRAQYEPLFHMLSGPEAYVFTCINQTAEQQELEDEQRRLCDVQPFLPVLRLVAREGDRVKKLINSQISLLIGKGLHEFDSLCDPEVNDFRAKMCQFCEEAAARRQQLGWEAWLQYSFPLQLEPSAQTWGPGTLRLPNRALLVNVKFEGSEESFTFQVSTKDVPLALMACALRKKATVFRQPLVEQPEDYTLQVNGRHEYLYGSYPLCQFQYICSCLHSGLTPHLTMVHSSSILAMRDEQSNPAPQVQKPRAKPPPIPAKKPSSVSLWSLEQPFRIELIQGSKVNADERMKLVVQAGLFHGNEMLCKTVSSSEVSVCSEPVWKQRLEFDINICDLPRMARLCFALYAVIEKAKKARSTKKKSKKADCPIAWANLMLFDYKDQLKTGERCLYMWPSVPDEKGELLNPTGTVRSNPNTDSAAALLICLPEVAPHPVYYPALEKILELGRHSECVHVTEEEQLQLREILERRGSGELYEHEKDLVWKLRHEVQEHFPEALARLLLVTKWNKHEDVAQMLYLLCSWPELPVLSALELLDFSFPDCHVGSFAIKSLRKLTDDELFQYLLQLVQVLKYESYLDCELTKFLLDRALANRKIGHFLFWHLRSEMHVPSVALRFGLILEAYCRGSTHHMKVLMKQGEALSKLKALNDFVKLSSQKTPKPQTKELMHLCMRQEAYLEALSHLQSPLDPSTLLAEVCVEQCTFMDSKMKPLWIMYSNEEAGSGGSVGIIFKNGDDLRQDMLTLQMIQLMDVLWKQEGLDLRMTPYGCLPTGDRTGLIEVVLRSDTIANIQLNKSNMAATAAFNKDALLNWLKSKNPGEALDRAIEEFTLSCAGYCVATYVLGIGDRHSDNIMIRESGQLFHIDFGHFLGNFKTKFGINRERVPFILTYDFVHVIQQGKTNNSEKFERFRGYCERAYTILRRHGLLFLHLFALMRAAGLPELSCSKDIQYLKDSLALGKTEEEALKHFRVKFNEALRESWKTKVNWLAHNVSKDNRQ
T1 sequence (P27986 whole entry partner): as the sequence (P27986 whole entry partner) above
T4 sequence (P48736 whole entry): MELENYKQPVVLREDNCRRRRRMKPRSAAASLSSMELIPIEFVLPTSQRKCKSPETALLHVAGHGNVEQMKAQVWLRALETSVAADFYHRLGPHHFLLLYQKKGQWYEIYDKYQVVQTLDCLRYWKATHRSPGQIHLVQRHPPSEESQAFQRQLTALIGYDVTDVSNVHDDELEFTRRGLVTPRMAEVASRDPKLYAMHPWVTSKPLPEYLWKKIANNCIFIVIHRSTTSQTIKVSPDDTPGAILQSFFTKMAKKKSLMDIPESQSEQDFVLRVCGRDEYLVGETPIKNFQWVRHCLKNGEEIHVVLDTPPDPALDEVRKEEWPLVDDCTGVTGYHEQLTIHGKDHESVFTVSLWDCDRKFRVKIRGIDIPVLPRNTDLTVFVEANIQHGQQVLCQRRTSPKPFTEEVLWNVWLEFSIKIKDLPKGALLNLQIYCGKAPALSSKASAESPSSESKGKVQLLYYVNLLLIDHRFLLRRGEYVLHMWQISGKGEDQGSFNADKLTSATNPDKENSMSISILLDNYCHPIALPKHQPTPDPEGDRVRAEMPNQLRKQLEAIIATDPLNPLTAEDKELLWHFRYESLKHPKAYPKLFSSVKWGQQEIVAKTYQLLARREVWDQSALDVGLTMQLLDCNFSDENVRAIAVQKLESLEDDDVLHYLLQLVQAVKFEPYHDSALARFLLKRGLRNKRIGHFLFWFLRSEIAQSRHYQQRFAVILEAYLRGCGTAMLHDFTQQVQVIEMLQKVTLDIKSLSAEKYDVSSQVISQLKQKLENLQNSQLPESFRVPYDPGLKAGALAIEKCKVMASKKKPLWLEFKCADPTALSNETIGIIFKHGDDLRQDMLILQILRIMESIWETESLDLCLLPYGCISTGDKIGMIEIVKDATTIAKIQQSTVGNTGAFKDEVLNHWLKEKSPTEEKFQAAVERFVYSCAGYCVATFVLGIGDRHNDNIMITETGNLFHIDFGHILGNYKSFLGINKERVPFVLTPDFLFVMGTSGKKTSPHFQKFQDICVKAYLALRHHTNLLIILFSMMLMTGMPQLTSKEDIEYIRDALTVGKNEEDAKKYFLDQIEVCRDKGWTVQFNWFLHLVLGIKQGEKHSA
T2 sequence (P42336 whole entry): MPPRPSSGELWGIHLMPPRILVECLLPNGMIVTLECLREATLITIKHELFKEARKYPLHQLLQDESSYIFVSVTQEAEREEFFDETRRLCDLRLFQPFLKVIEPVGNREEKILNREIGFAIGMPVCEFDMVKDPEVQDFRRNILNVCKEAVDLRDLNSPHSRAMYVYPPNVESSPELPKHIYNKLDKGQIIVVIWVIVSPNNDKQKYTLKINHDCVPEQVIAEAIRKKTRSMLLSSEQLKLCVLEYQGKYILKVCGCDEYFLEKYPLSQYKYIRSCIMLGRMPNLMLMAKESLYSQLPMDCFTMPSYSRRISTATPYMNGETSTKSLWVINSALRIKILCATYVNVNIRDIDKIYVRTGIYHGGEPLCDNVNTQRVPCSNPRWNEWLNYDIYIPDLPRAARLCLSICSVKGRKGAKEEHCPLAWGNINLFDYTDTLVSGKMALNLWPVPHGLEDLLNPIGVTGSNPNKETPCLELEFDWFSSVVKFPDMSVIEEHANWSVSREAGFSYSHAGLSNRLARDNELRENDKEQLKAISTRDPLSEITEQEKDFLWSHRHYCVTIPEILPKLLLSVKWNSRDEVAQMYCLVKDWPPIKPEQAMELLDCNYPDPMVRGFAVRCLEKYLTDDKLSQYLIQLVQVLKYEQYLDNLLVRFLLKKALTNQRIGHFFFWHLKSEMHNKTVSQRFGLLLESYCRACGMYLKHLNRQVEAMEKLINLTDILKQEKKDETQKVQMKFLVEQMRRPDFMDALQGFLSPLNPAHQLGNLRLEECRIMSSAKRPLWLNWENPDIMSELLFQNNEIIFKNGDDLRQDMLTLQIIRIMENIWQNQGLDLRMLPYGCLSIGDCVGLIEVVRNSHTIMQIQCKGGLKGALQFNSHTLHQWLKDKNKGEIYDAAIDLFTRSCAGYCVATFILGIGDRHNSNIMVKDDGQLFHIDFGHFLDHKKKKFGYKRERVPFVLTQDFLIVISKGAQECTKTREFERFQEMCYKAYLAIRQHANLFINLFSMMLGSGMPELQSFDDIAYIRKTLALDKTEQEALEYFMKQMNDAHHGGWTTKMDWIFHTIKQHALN
T2 sequence (P27986 whole entry partner): as the sequence (P27986 whole entry partner) above

## Nc1ncc(-c2cccc3nc([C@@H](Nc4ncnc5cccc(F)c45)C4CC4)n(-c4ccccc4)c(=O)c23)cn1 [Example 31, (S)-5-(2-aminopyrimidin-5-yl)-2-(cyclopropyl((5-fluoroquinazolin-4-yl)amino)methyl)-3-phenylquinazolin-4(3H)-one]
PI3Kδ (p110δ/p85α)(h)
  IC50: 3 nM
PI3Kα (p110α/p85α)(h)
  IC50: 652 nM
PI3Kβ (p110β/p85α)(h)
  IC50: 9310 nM
PI3Kγ (p120γ)(h)
  IC50: 442 nM

## COc1ncc(-c2cccc3cc([C@H](C)Nc4ncnc5ccc(C#N)cc45)n(-c4ccccc4)c(=O)c23)cn1 [Example 33, (S)-4-((1-(8-(2-methoxypyrimidin-5-yl)-1-oxo-2-phenyl-1,2-dihydroisoquinolin-3-yl)ethyl)amino)quinazoline-6-carbonitrile]
PI3Kδ (p110δ/p85α)(h)
  IC50: 10 nM
PI3Kα (p110α/p85α)(h)
  IC50: 1240 nM
PI3Kβ (p110β/p85α)(h)
  IC50: 6690 nM
PI3Kγ (p120γ)(h)
  IC50: 155 nM

## CCOc1ncc(-c2cccc3cc([C@H](CC)Nc4ncnc5ccc(C#N)cc45)n(-c4ccccc4)c(=O)c23)cn1 [Example 41, (S)-4-((1-(8-(2-ethoxypyrimidin-5-yl)-1-oxo-2-phenyl-1,2-dihydroisoquinolin-3-yl)propyl)amino)quinazoline-6-carbonitrile]
PI3Kδ (p110δ/p85α)(h)
  IC50: 2 nM
PI3Kα (p110α/p85α)(h)
  IC50: 909 nM
PI3Kβ (p110β/p85α)(h)
  IC50: 9380 nM
PI3Kγ (p120γ)(h)
  IC50: 489 nM

## C[C@H](Nc1ncnc2ccc(C#N)cc12)c1nc2cccc(-c3cncnc3)c2c(=O)n1C1CC1 [Example 17, (S)-4-((1-(3-cyclopropyl-4-oxo-5-(pyrimidin-5-yl)-3,4-dihydroquinazolin-2-yl)ethyl)amino)quinazoline-6-carbonitrile]
PI3Kδ (p110δ/p85α)(h)
  IC50: 10 nM
PI3Kα (p110α/p85α)(h)
  IC50: 2640 nM
PI3Kβ (p110β/p85α)(h)
  IC50: 3820 nM
PI3Kγ (p120γ)(h)
  IC50: 947 nM

## C[C@H](Nc1ncnc2cccc(F)c12)c1cc2cccc(-c3cnc(N)nc3)c2c(=O)n1-c1ccccc1 [Example 43, (S)-8-(2-aminopyrimidin-5-yl)-3-(1-((5-fluoroquinazolin-4-yl)amino)ethyl)-2-phenylisoquinolin-1(2H)-one]
PI3Kδ (p110δ/p85α)(h)
  IC50: 13 nM
PI3Kα (p110α/p85α)(h)
  IC50: 2670 nM
PI3Kβ (p110β/p85α)(h)
  IC50: 8860 nM
PI3Kγ (p120γ)(h)
  IC50: 283 nM

## COc1ncc(-c2cccc3nc([C@H](C)Nc4ncnc5ccc(C#N)cc45)n(C4CC4)c(=O)c23)cn1 [Example 18, (S)-4-((1-(3-cyclopropyl-5-(2-methoxypyrimidin-5-yl)-4-oxo-3,4-dihydroquinazolin-2-yl)ethyl)amino)quinazoline-6-carbonitrile]
PI3Kδ (p110δ/p85α)(h)
  IC50: 19 nM
PI3Kα (p110α/p85α)(h)
  IC50: 2710 nM
PI3Kβ (p110β/p85α)(h)
  IC50: 5790 nM
PI3Kγ (p120γ)(h)
  IC50: 771 nM

## C[C@H](Nc1ncnc2ccc(C#N)cc12)c1cc2cccc(-c3cncnc3)c2c(=O)n1-c1ccccc1 [Example 32, (S)-4-((1-(1-oxo-2-phenyl-8-(pyrimidin-5-yl)-1,2-dihydroisoquinolin-3-yl)ethyl)amino)quinazoline-6-carbonitrile]
PI3Kδ (p110δ/p85α)(h)
  IC50: 2 nM
PI3Kα (p110α/p85α)(h)
  IC50: 1730 nM
PI3Kβ (p110β/p85α)(h)
  IC50: 4800 nM
PI3Kγ (p120γ)(h)
  IC50: 416 nM

## CC[C@H](Nc1ncnc2cccc(F)c12)c1nc2cccc(-c3cnc(N)nc3)c2c(=O)n1-c1ccccc1 [Example 25, (S)-5-(2-aminopyrimidin-5-yl)-2-(1-((5-fluoroquinazolin-4-yl)amino)propyl)-3-phenylquinazolin-4(3H)-one]
PI3Kδ (p110δ/p85α)(h)
  IC50: 10 nM
PI3Kα (p110α/p85α)(h)
  IC50: 1460 nM
PI3Kβ (p110β/p85α)(h)
  IC50: 9590 nM
PI3Kγ (p120γ)(h)
  IC50: 1230 nM

## CC[C@H](Nc1ncnc2ccc(C#N)cc12)c1nc2cccc(-c3cnc(N)nc3)c2c(=O)n1C1CC1 [Example 21, (S)-4-((1-(5-(2-aminopyrimidin-5-yl)-3-cyclopropyl-4-oxo-3,4-dihydroquinazolin-2-yl)propyl)amino)quinazoline-6-carbonitrile]
PI3Kδ (p110δ/p85α)(h)
  IC50: 13 nM
PI3Kα (p110α/p85α)(h)
  IC50: 650 nM
PI3Kβ (p110β/p85α)(h)
  IC50: 3730 nM
PI3Kγ (p120γ)(h)
  IC50: 371 nM

## CCOc1ncc(-c2cccc3cc([C@H](C)Nc4ncnc5ccc(C#N)cc45)n(-c4ccccc4)c(=O)c23)cn1 [Example 34, (S)-4-((1-(8-(2-ethoxypyrimidin-5-yl)-1-oxo-2-phenyl-1,2-dihydroisoquinolin-3-yl)ethyl)amino)quinazoline-6-carbonitrile]
PI3Kδ (p110δ/p85α)(h)
  IC50: 17 nM
PI3Kα (p110α/p85α)(h)
  IC50: 1350 nM
PI3Kβ (p110β/p85α)(h)
  IC50: 7390 nM
PI3Kγ (p120γ)(h)
  IC50: 324 nM

## CC(C)[C@H](Nc1ncnc2cccc(F)c12)c1cc2cccc(-c3cnc(N)nc3)c2c(=O)n1-c1ccccc1 [Example 46, (S)-8-(2-aminopyrimidin-5-yl)-3-(1-((5-fluoroquinazolin-4-yl)amino)-2-methylpropyl)-2-phenylisoquinolin-1(2H)-one]
PI3Kδ (p110δ/p85α)(h)
  IC50: 12 nM
PI3Kα (p110α/p85α)(h)
  IC50: 2950 nM
PI3Kβ (p110β/p85α)(h)
  IC50: 7950 nM
PI3Kγ (p120γ)(h)
  IC50: 1580 nM

## CC[C@H](Nc1ncnc2cccc(F)c12)c1nc2cccc(-c3cnc(F)nc3)c2c(=O)n1-c1ccccc1 [Example 26, (S)-5-(2-fluoropyrimidin-5-yl)-2-(1-((5-fluoroquinazolin-4-yl)amino)propyl)-3-phenylquinazolin-4(3H)-one]
PI3Kδ (p110δ/p85α)(h)
  IC50: 17 nM
PI3Kα (p110α/p85α)(h)
  IC50: 4470 nM
PI3Kγ (p120γ)(h)
  IC50: 3420 nM

## Cc1ncc(-c2cccc3cc([C@H](C)Nc4ncnc5ccc(C#N)cc45)n(-c4ccccc4)c(=O)c23)cn1 [Example 36, (S)-4-((1-(8-(2-methylpyrimidin-5-yl)-1-oxo-2-phenyl-1,2-dihydroisoquinolin-3-yl)ethyl)amino)quinazoline-6-carbonitrile]
PI3Kδ (p110δ/p85α)(h)
  IC50: 5 nM
PI3Kα (p110α/p85α)(h)
  IC50: 730 nM
PI3Kγ (p120γ)(h)
  IC50: 86 nM

## C[C@H](Nc1ncnc2cccc(F)c12)c1nc2cccc(-c3cnc(N)nc3)c2c(=O)n1-c1ccccc1 [Example 23, (S)-5-(2-aminopyrimidin-5-yl)-2-(1-((5-fluoroquinazolin-4-yl)amino)ethyl)-3-phenylquinazolin-4(3H)-one]
PI3Kδ (p110δ/p85α)(h)
  IC50: 19 nM
PI3Kα (p110α/p85α)(h)
  IC50: 2730 nM
PI3Kγ (p120γ)(h)
  IC50: 1390 nM

## CC(C)[C@H](Nc1ncnc2cccc(F)c12)c1nc2cccc(-c3cnc(N)nc3)c2c(=O)n1-c1ccccc1 [Example 29, (S)-5-(2-aminopyrimidin-5-yl)-2-(1-((5-fluoroquinazolin-4-yl)amino)-2-methylpropyl)-3-phenylquinazolin-4(3H)-one]
PI3Kδ (p110δ/p85α)(h)
  IC50: 13 nM
PI3Kα (p110α/p85α)(h)
  IC50: 2010 nM
PI3Kγ (p120γ)(h)
  IC50: 7610 nM

## CCOc1ncc(-c2cccc3nc([C@H](CC)Nc4ncnc5ccc(C#N)cc45)n(-c4ccccc4)c(=O)c23)cn1 [Example 6, (S)-4-((1-(5-(2-ethoxypyrimidin-5-yl)-4-oxo-3-phenyl-3,4-dihydroquinazolin-2-yl)propyl)amino)quinazoline-6-carbonitrile]
PI3Kδ (p110δ/p85α)(h)
  IC50: 15 nM
PI3Kα (p110α/p85α)(h)
  IC50: 1510 nM
PI3Kγ (p120γ)(h)
  IC50: 1960 nM

## CCC[C@H](Nc1ncnc2ccc(C#N)cc12)c1nc2cccc(-c3cnc(C)nc3)c2c(=O)n1-c1ccccc1 [Example 9, (S)-4-((1-(5-(2-methylpyrimidin-5-yl)-4-oxo-3-phenyl-3,4-dihydroquinazolin-2-yl)butyl)amino)quinazoline-6-carbonitrile]
PI3Kδ (p110δ/p85α)(h)
  IC50: 18 nM
PI3Kα (p110α/p85α)(h)
  IC50: 2850 nM
PI3Kγ (p120γ)(h)
  IC50: 1150 nM

## C[C@H](Nc1ncnc2cccc(F)c12)c1cc2cccc(-c3cnc(F)nc3)c2c(=O)n1-c1ccccc1 [Example 44, (S)-8-(2-fluoropyrimidin-5-yl)-3-(1-((5-fluoroquinazolin-4-yl)amino)ethyl)-2-phenylisoquinolin-1(2H)-one]
PI3Kδ (p110δ/p85α)(h)
  IC50: 18 nM
PI3Kα (p110α/p85α)(h)
  IC50: 5630 nM
PI3Kγ (p120γ)(h)
  IC50: 2010 nM
